# Assays:
# Assay in all cases: relative viability (nuclei count vs DMSO), 5 days (fraction); higher = more cells survive
# RU-SKI 43 + Linsitinib = compound: CC[C@@H](C)CNCC(=O)N1CCC2=C([C@@H]1COC3=CC=CC(=C3)C)C=CS2 [RU-SKI 43] + C[C@]1(O)C[C@@H](c2nc(-c3ccc4ccc(-c5ccccc5)nc4c3)c3c(N)nccn32)C1 [Linsitinib] (partner 1 µM)
# Summary of the method: (§1)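 A single step with final 0.05% Triton X-100, 1% formaldehyde and 1 ug/ml Hoechst fixed the cells and stained nuclei 5 days after treatment. Lung cancer cell lines in 1536-well plates had been treated by pin tool the day after seeding with one drug alone or a fixed anchor-drug dose plus five library-drug doses (not always all listed) in √10 steps, and nuclei were counted on 4× images. Relative viability is the ratio of nuclei in treated wells to nuclei in vehicle wells, taken as the median of duplicate plates.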
# MK-8033 + Tozasertib = compound: Cn1cc(-c2cnc3ccc4ccc(CS(=O)(=O)NCc5ccccn5)cc4c(=O)c3c2)cn1 [MK-8033] + Cc1cc(Nc2cc(N3CCN(C)CC3)nc(Sc3ccc(NC(=O)C4CC4)cc3)n2)n[nH]1 [Tozasertib] (partner 0.1 µM)
# Summary of the method: as §1
# MK-8033 + Linsitinib = compound: Cn1cc(-c2cnc3ccc4ccc(CS(=O)(=O)NCc5ccccn5)cc4c(=O)c3c2)cn1 [MK-8033] + C[C@]1(O)C[C@@H](c2nc(-c3ccc4ccc(-c5ccccc5)nc4c3)c3c(N)nccn32)C1 [Linsitinib] (partner 1 µM)
# Summary of the method: as §1
# RU-SKI 43 + Foretinib = compound: CC[C@@H](C)CNCC(=O)N1CCC2=C([C@@H]1COC3=CC=CC(=C3)C)C=CS2 [RU-SKI 43] + COc1cc2c(Oc3ccc(NC(=O)C4(C(=O)Nc5ccc(F)cc5)CC4)cc3F)ccnc2cc1OCCCN1CCOCC1 [Foretinib] (partner 0.25 µM)
# Summary of the method: as §1
Cell Line,relative viability (RU-SKI 43 + Linsitinib; first compound 0.1 µM),relative viability (RU-SKI 43 + Linsitinib; first compound 0.3162 µM),relative viability (RU-SKI 43 + Linsitinib; first compound 1 µM),relative viability (RU-SKI 43 + Linsitinib; first compound 3.162 µM),relative viability (RU-SKI 43 + Linsitinib; first compound 10 µM),relative viability (MK-8033 + Tozasertib; first compound 0.02 µM),relative viability (MK-8033 + Tozasertib; first compound 0.06325 µM),relative viability (MK-8033 + Tozasertib; first compound 0.2 µM),relative viability (MK-8033 + Tozasertib; first compound 0.6325 µM),relative viability (MK-8033 + Tozasertib; first compound 2 µM),relative viability (MK-8033 + Linsitinib; first compound 0.02 µM),relative viability (MK-8033 + Linsitinib; first compound 0.06325 µM),relative viability (MK-8033 + Linsitinib; first compound 0.2 µM),relative viability (MK-8033 + Linsitinib; first compound 0.6325 µM),relative viability (MK-8033 + Linsitinib; first compound 2 µM),relative viability (RU-SKI 43 + Foretinib; first compound 0.1 µM),relative viability (RU-SKI 43 + Foretinib; first compound 0.3162 µM),relative viability (RU-SKI 43 + Foretinib; first compound 1 µM),relative viability (RU-SKI 43 + Foretinib; first compound 3.162 µM),relative viability (RU-SKI 43 + Foretinib; first compound 10 µM)
201T,1.07,1.02,1.07,1.17,1.03,0.864,0.899,0.82,0.909,0.86,1.13,0.916,0.979,1,1.02,1.04,1.11,1.12,1.07,1.01
A549,0.73,0.762,0.656,0.596,0.613,,,,,,0.627,0.571,0.52,0.515,0.581,1.12,1.1,1.06,0.93,0.852
A-427,1.08,1.22,1.13,,1.01,0.225,0.213,0.209,0.17,0.194,1.09,1.21,1.02,1.17,1.1,1.14,1.03,1.13,1.11,0.969
ABC-1,0.924,0.775,0.801,0.569,0.845,0.207,0.123,0.155,0.174,0.154,0.744,0.791,0.676,0.829,0.657,1.04,1.05,1.04,1.06,0.754
BEN,1.02,1.2,1.15,0.965,0.922,0.544,0.491,0.461,0.492,0.545,0.906,0.859,0.765,0.844,0.853,0.789,0.548,0.992,0.53,0.705
Calu-6,0.942,1.05,0.999,0.929,1.02,,,,,,0.895,0.96,0.874,1.01,0.876,0.958,0.976,0.973,0.859,0.724
ChaGo-K-1,,,,,,0.216,0.227,0.224,0.218,0.206,,,,,,0.854,1.07,0.98,0.862,0.818
EBC-1,1.04,0.936,0.847,0.956,0.827,,,,,,0.938,0.68,0.895,1.05,0.167,0.103,0.0955,0.101,0.0987,0.109
HCC-44,0.595,0.647,0.835,0.69,0.645,0.886,0.837,0.771,0.729,0.813,0.615,0.661,0.617,0.654,0.688,,,,,
IA-LM,0.623,0.563,0.512,0.552,0.577,,,,,,0.522,0.465,0.654,0.61,0.587,1.25,1.28,1.49,1.18,1.13
NCI-H522,,,,,,0.606,0.477,0.53,0.496,0.599,,,,,,,,,,
NCI-H1299,1.03,1.2,1.1,1.04,0.965,,,,,,0.997,0.997,0.958,1.05,0.988,1.08,1.1,1.14,1.12,1.09
NCI-H1563,1.2,1.2,1.11,1.09,1.13,,,,,,1.26,1.15,1.13,1.23,1.19,0.918,0.985,0.957,0.855,0.755
NCI-H1623,,,,,,0.396,0.358,0.428,0.43,0.498,,,,,,0.802,0.871,0.922,0.826,0.711
NCI-H1648,,,,,,,0.404,0.405,,0.426,,,,,,,,,,
NCI-H1650,,,,,,0.395,0.325,0.395,0.352,0.276,,,,,,1.05,1.22,1.24,1.02,0.887
NCI-H1703,0.653,1.02,0.545,0.636,0.503,,,,,,0.552,0.762,0.556,0.89,0.446,0.388,0.33,0.297,0.337,0.295
NCI-H1792,0.46,0.601,0.596,0.585,0.538,,,,,,0.468,0.528,0.527,0.454,0.523,,,,,
NCI-H2170,,,,,,0.662,0.702,0.634,0.695,0.628,,,,,,0.994,1.13,1.07,1.09,0.975
NCI-H2342,,,,,,0.571,0.475,0.485,0.377,0.53,,,,,,0.967,1.09,1.01,1.06,1.02
SW 900,,,,,,0.583,0.645,0.51,0.615,0.341,,,,,,0.807,0.873,1.22,0.864,0.77

# Source: the supplement of paper PMC10307832
